According to PubChem BioAssay AID1208 (EPA DSSTox, 2008):
Calls of active or inactive are those of the source.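 Rule for the calls: active = at least one rat sex group has a carcinogenic potency value and tumor site recorded; inconclusive = only rat studies were judged inadequate by the national testing program; inactive = no potency or tumor site, with negative rat experiments.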

Tested on: rat chronic carcinogenicity bioassay, TD50
Experiment: DSSTox (CPDBAS) Carcinogenic Potency Database Summary Rat Bioassay Results
Details: for Potency: stronger effect = lower value
Procedure, shortened: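 Chronic long-term rat cancer bioassays from literature and NCI/NTP, taking the most positive result per sex. TD50 in mmol converted to a 1–100 Activity Score from log10(1/TD50). Mixtures lacking TD50 scored 50.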

[1] = TD50_Rat_Note: no positive results
[2] = TD50_Rat_Note: no positive results, TargetSites_Rat_Female: no positive results
[3] = TargetSites_Rat_Female: no positive results
[4] = TargetSites_Rat_Female: mammary gland

O=C1NS(=O)(=O)c2ccccc21 was tested, and the Potency (TD50_Rat_Note: TD50 is harmonic mean of more than one positive test, greater than ten-fold variation among TD50 values for positive res, TargetSites_Rat_Female: no positive results) was 2140 mg/kg/day and the outcome [1] was “inactive; no positive results”.
In the case of BrC(Br)Br, the Potency (TD50_Rat_Note: TD50 is harmonic mean of more than one positive test, TargetSites_Rat_Female: large intestine) is reported as 648 mg/kg/day.
Cc1ccc(S(=O)(=O)OCCN(C)N=O)cc1 gave a Potency (TD50_Rat_Note: TD50 is harmonic mean of more than one positive test, TargetSites_Rat_Female: liver, vascular system) of 4.8 mg/kg/day.
With COc1cc(-c2ccc(N=Nc3c(S(=O)(=O)O)cc4cc(S(=O)(=O)O)cc(N)c4c3O)c(OC)c2)ccc1N=Nc1c(S(=O)(=O)O)cc2cc(S(=O)(=O)O)cc(N)c2c1O the Potency (TD50_Rat_Note: TD50 is harmonic mean of more than one positive test, TargetSites_Rat_Female: clitoral gland, ear Zymbals gland, hematopoietic system, large intestine, liver, oral cavity, skin, small intestine, ute) was 27.5 mg/kg/day.
In the case of CCOc1ccc(NC(C)=O)cc1[N+](=O)[O-], the outcome [2] is reported as “inactive; no positive results”.
Work on COc1ccc(C)cc1N yielded a Potency (TD50_Rat_Note: TD50 is harmonic mean of more than one positive test, TargetSites_Rat_Female: nasal cavity, urinary bladder) of 98 mg/kg/day.
In the case of CNC[C@H](O)c1cccc(O)c1, the outcome [2] is reported as “inactive; no positive results”.
C=CC(=C)C was tested, and the Potency (TD50_Rat_Note: TD50 is harmonic mean of more than one positive test, TargetSites_Rat_Female: mammary gland) was 313 mg/kg/day.
In the case of CCOP(=S)(OCC)Oc1ccc([N+](=O)[O-])cc1, the outcome [2] is reported as “inactive; no positive results”.
O=C(O)CC[N+](=O)[O-] was tested, and the outcome [2] was “inactive; no positive results”.
In the case of O=C(Nc1ccc([N+](=O)[O-])cc1Cl)c1cc(Cl)ccc1O, the outcome [2] is reported as “inactive; no positive results”.
In the case of O=C(O)c1[nH]n(-c2ccc(S(=O)(=O)O)cc2)c(=O)c1N=Nc1ccc(S(=O)(=O)O)cc1, the outcome [2] is reported as “inactive; no positive results”.
COP(=O)(OC)OC was tested, and the outcome [2] was “inactive; no positive results”.
For CC(N)Cc1ccccc1 (configuration not stated), the outcome [2] was “inactive; no positive results”.
For Cc1cc(O)ccc1O, the outcome [1] was “inactive; no positive results”.
With Cl the outcome [1] was “inactive; no positive results” and the outcome [2] was “inactive; no positive results”.
With CC1CN(N=O)C(=O)NC1=O (configuration not stated) the outcome [2] was “inactive; no positive results”.
In the case of Nc1ccccc1C(=O)O, the outcome [2] is reported as “inactive; no positive results”.
For S=C(NC1CCCCC1)NC1CCCCC1, the outcome [2] was “inactive; no positive results”.
O=c1c(O)c(-c2ccc(O)c(O)c2)oc2cc(O)cc(O)c12 was tested, and the Potency (TD50_Rat_Note: TD50 is harmonic mean of more than one positive test, greater than ten-fold variation among TD50 values for positive res, TargetSites_Rat_Female: small intestine, urinary bladder) was 10.1 mg/kg/day and the outcome [2] was “inactive; no positive results”.
O=NN1CCCC1c1cccnc1 (configuration not stated) showed a Potency of 0.0957 mg/kg/day.
CC(=O)Nc1ccc(CC(=O)O)cc1 was tested, and the outcome [2] was “inactive; no positive results”.
In the case of NC(Cc1c[nH]c2ccccc12)C(=O)O (configuration not stated), the outcome [1] is reported as “inactive; no positive results”.
In the case of CCCCC1(COC(=O)CCC(=O)O)C(=O)N(c2ccccc2)N(c2ccccc2)C1=O, the outcome [2] is reported as “inactive; no positive results”.
With COc1cc(-c2ccc(N)c(OC)c2)ccc1N the Potency (TD50_Rat_Note: TD50 is harmonic mean of more than one positive test, TargetSites_Rat_Female: clitoral gland, ear Zymbals gland, large intestine, liver, mammary gland, oral cavity, skin, uterus) was 1.04 mg/kg/day.
Molecule Cc1ccc(N=Nc2c(O)ccc3ccccc23)c([N+](=O)[O-])c1 has a Potency (TD50_Rat_Note: TD50 is harmonic mean of more than one positive test, TargetSites_Rat_Female: liver) of 1170 mg/kg/day.
For N[C@@H](CC(=O)O)C(=O)O, the outcome [2] was “inactive; no positive results”.
With CCN=[N+]([O-])CC the Potency was 0.022 mg/kg/day.
Molecule Cc1ccc(N)cc1N has a Potency (TD50_Rat_Note: TD50 is harmonic mean of more than one positive test, TargetSites_Rat_Female: liver, mammary gland) of 2.47 mg/kg/day and a Potency of 4.42 mg/kg/day.
For CN(C)c1ccc(N=NS(=O)(=O)O)cc1, the outcome [2] was “inactive; no positive results”.
Work on CC(O)CN(CC(C)O)N=O (configuration not stated) yielded a Potency (TD50_Rat_Note: TD50 is harmonic mean of more than one positive test, TargetSites_Rat_Female: esophagus, nasal cavity) of 0.846 mg/kg/day.
Work on FCC(F)(F)F yielded a Potency [3] of 29900 mg/kg/day.
In the case of CCN(N=O)C(=O)NCC(C)=O, the Potency (TD50_Rat_Note: TD50 is harmonic mean of more than one positive test, harmonic mean of TD50 includes a value for upper 99% confidence li, TargetSites_Rat_Female: large intestine, lung, mammary gland, nervous system, skin, thyroid gland, uterus) is reported as 0.181 mg/kg/day.
In the case of O=[N+]([O-])c1ccc2ccc3cccc4ccc1c2c34, the Potency (TargetSites_Rat_Female: clitoral gland, hematopoietic system, mammary gland) is reported as 3.33 mg/kg/day.
Work on Nc1c(Br)cc(Br)c2c1C(=O)c1ccccc1C2=O yielded a Potency (TD50_Rat_Note: TD50 is harmonic mean of more than one positive test, TargetSites_Rat_Female: kidney, large intestine, liver, urinary bladder) of 46 mg/kg/day.
With COC(=O)[C@H]1[C@H]2C[C@@H]3c4[nH]c5cc(OC)ccc5c4CCN3C[C@H]2C[C@@H](OC(=O)c2cc(OC)c(OC)c(OC)c2)[C@@H]1OC the Potency [3] was 0.306 mg/kg/day.
In the case of O=NN1CCCCC1, the Potency (TD50_Rat_Note: TD50 is harmonic mean of more than one positive test, TargetSites_Rat_BothSexes: esophagus, liver, nasal cavity) is reported as 1.43 mg/kg/day.
In the case of N#Cc1ccc(C2CCCc3cncn32)cc1 (configuration not stated), the outcome [2] is reported as “inactive; no positive results”.
With O=[O+][O-] the outcome [2] was “inactive; no positive results”.
With CN(N=O)C(=O)c1ccccc1 the Potency (TD50_Rat_Note: TD50 is harmonic mean of more than one positive test, TargetSites_Rat_Female: all tumor bearing animals) was 3.23 mg/kg/day.
Molecule Cc1ccccc1[N+](=O)[O-] has a Potency (TD50_Rat_Note: TD50 is harmonic mean of more than one positive test, greater than ten-fold variation among TD50 values for positive res, TargetSites_Rat_Female: liver, mammary gland, subcutaneous tissue) of 4.66 mg/kg/day.
For CN(Cc1cnc2nc(N)nc(N)c2n1)c1ccc(C(=O)N[C@@H](CCC(=O)O)C(=O)O)cc1, the outcome [2] was “inactive; no positive results”.
For Cn1c(N)nc2c3cccnc3ccc21, the Potency (TD50_Rat_Note: TD50 is harmonic mean of more than one positive test, greater than ten-fold variation among TD50 values for positive res, TargetSites_Rat_Female: clitoral gland, ear Zymbals gland, large intestine, liver, mammary gland, oral cavity, preputial gland, skin, small inte) was 0.812 mg/kg/day and the Potency (TargetSites_Rat_Female: ear Zymbals gland, liver, mammary gland, pancreas, urinary bladder, vascular system) was 3.29 mg/kg/day.
CCOP(=S)(OCC)Oc1ccc2c(C)c(Cl)c(=O)oc2c1 was tested, and the outcome [2] was “inactive; no positive results”.
CCC[N+](=O)[O-] was tested, and the outcome [2] was “inactive; no positive results”.
With [CH3][Hg][Cl] the outcome [2] was “inactive; no positive results”.
For CC/C(=C(\c1ccccc1)c1ccc(OCCN(C)C)cc1)c1ccccc1, the Potency (TD50_Rat_Note: TD50 is harmonic mean of more than one positive test, harmonic mean of TD50 includes a value for upper 99% confidence li, TargetSites_Rat_Female: liver) was 3.96 mg/kg/day.
In the case of ClC1C(Cl)C(Cl)C(Cl)C(Cl)C1Cl (configuration not stated), the outcome [2] is reported as “inactive; no positive results” and the Potency is reported as 11.2 mg/kg/day.
In the case of Clc1ccc(C(c2ccc(Cl)cc2)C(Cl)Cl)cc1, the outcome [2] is reported as “inactive; no positive results”.
In the case of CCN(CC)C(=O)/C(Cl)=C(\C)OP(=O)(OC)OC, the outcome (TD50_Rat_Note: only experiment is NCI/NTP bioassay inadequate, TargetSites_Rat_Female: NTP bioassay inadequate) is reported as “ntp bioassay inadequate”.
CCNc1nc(Cl)nc(NC(C)(C)C#N)n1 showed a Potency [4] of 6.33 mg/kg/day.
In the case of CCNC(=S)NCC, the Potency (TD50_Rat_Note: TD50 is harmonic mean of more than one positive test, TargetSites_Rat_Female: thyroid gland) is reported as 24 mg/kg/day.
CC1=CC(=C(c2ccc(N)cc2)c2ccc(N)cc2)C=CC1=N was tested, and the outcome [2] was “inactive; no positive results”.
In the case of O=C(O)CCC(=O)O, the outcome [2] is reported as “inactive; no positive results”.
With C[C@]12CCC(=O)C=C1CC[C@@H]1[C@@H]2[C@@H](O)C[C@@]2(C)[C@H]1CC[C@]2(O)C(=O)CO the outcome [2] was “inactive; no positive results”.
In the case of CC(=O)N[C@@H](CS)C(=O)O, the outcome [1] is reported as “inactive; no positive results”.
In the case of FC(F)(F)C(Cl)Cl, the Potency (TD50_Rat_Note: TD50 is harmonic mean of more than one positive test, greater than ten-fold variation among TD50 values for positive res, TargetSites_Rat_Female: liver) is reported as 2370 mg/kg/day.
Work on CC(C)=CCl yielded a Potency (TD50_Rat_Note: TD50 is harmonic mean of more than one positive test, TargetSites_Rat_Female: esophagus, nasal cavity, oral cavity, stomach) of 31.8 mg/kg/day.
For O=C(O)c1ccccc1-c1c2cc(I)c(=O)c(I)c-2oc2c(I)c(O)c(I)cc12, the outcome [2] was “inactive; no positive results”.
O=C(O)c1ccc(O)c(O)c1 was tested, and the outcome [1] was “inactive; no positive results”.
In the case of C[C@@H]1O[C@@H](OC[C@H]2O[C@@H](Oc3c(-c4ccc(O)c(O)c4)oc4cc(O)cc(O)c4c3=O)[C@H](O)[C@@H](O)[C@@H]2O)[C@H](O)[C@H](O)[C@H]1O, the outcome [2] is reported as “inactive; no positive results”.
For O=C1Nc2ccc(Cl)cc2C(c2ccccc2)=NC1O (configuration not stated), the outcome [2] was “inactive; no positive results”.
CC(COc1ccc(C(C)(C)C)cc1)OS(=O)OCCCl (configuration not stated) was tested, and the Potency (TD50_Rat_Note: TD50 is harmonic mean of more than one positive test, TargetSites_Rat_BothSexes: liver) was 96.7 mg/kg/day.
In the case of CN(C)CCC(c1ccc(Cl)cc1)c1ccccn1 (configuration not stated), the outcome [2] is reported as “inactive; no positive results”.
With CC(=O)C(N=Nc1ccc(Cl)cc1Cl)C(=O)Nc1ccc(-c2ccc(NC(=O)C(N=Nc3ccc(Cl)cc3Cl)C(C)=O)c(C)c2)cc1C (configuration not stated) the outcome (TD50_Rat_Note: no positive results, TargetSites_Rat_BothSexes: no positive results) was “inactive”.
In the case of COC(=O)C1=C(C)NC(C)=C(C(=O)OCCN2CCN(C(c3ccccc3)c3ccccc3)CC2)C1c1cccc([N+](=O)[O-])c1 (configuration not stated), the outcome [2] is reported as “inactive; no positive results”.
C[N+](=O)[O-] was tested, and the Potency [4] was 40.4 mg/kg/day.
In the case of Nc1cc([N+](=O)[O-])ccc1C(=O)O, the outcome [2] is reported as “inactive; no positive results”.
Oc1ccc2c(c1)OCO2 was tested, and the Potency (TD50_Rat_Note: TD50 is harmonic mean of more than one positive test, TargetSites_Rat_Female: stomach) was 1350 mg/kg/day.
O=NN1CCC(O)C1 (configuration not stated) gave a Potency (TargetSites_Rat_BothSexes: all tumor bearing animals) of 7.65 mg/kg/day.
In the case of BrCCBr, the Potency (TD50_Rat_Note: TD50 is harmonic mean of more than one positive test, TargetSites_Rat_Female: liver, lung, mammary gland, nasal cavity, pituitary gland, stomach, vascular system) is reported as 1.52 mg/kg/day.
For C[C@H](CCC(=O)O)[C@H]1CC[C@H]2[C@@H]3CC[C@@H]4C[C@H](O)CC[C@]4(C)[C@H]3CC[C@]12C, the outcome [2] was “inactive; no positive results”.
For CN[C@H]1CCc2cc(OC)c(OC)c(OC)c2-c2ccc(OC)c(=O)cc21, the outcome [1] was “inactive; no positive results”.
In the case of CCNC(=O)N(CCN(C)C)N=O, the Potency (TargetSites_Rat_Female: mammary gland, uterus) is reported as 0.704 mg/kg/day.
CNC(=O)O/N=C(\SC)C(=O)N(C)C was tested, and the outcome [2] was “inactive; no positive results”.
Molecule NCC(=O)O has a Potency (TargetSites_Rat_Female: kidney) of 25700 mg/kg/day.
